Each structure is given as a SMILES string.

From patent publication US8273769B2, “Phenoxy acetic acid derivatives” (Merck Serono SA, priority 2009, dated 2012) come the findings set out here.

The test system of data set [1] is OVA-induced lung eosinophilia in mice. In words: OVA-induced lung eosinophilia in mice. The format is in vivo, BALB/c mice. The settings on record: BAL fluid, dose 1 mg/kg. The protocol:
BALB/c mice (6-8 weeks old) were immunized with ovalbumin (10 μg i.p) on day 0 and 7. In order to elicit a local inflammatory response in the lung, mice were challenged between day's 15-17 with a nebulised solution of ovalbumin (10 μg/ml; De Vilibiss Ultraneb 2000, once daily for 30 min during the 3 days). On each separate day between 15 and 17 each animal received via oral gavage the test compound, at t−1 h and t+7 h with respect to OVA exposure at t=0 h. Eight hours after the final OVA challenge, bronchoalveolar lavage (BAL) was then carried out. Total cell numbers in the BAL fluid samples were measured using a haemocytometer. Cytospin smears of the BAL fluid samples were prepared by centrifugation at 1200 rpm for 2 min at room temperature and stained using a DiffQuik stain system (Dade Behring) for differential cell counts. […]

The target in data set [2] is T1, CRTH2 (Homo sapiens, UniProt Q9Y5Y4).
T1 sequence (Q9Y5Y4 1-395): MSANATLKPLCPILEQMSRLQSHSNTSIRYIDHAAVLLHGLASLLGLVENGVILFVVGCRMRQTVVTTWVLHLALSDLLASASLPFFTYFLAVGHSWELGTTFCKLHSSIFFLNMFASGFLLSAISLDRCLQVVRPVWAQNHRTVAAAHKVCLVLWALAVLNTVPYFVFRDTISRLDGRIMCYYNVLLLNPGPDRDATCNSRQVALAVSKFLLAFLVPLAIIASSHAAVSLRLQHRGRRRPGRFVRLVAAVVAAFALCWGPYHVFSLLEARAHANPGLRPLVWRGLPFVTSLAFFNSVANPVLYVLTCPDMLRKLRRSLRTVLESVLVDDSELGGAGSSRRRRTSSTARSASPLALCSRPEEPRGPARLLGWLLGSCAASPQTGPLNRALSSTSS
In words: Radioligand binding Scintillation Proximity Assay ([3H]PGD2, hCRTH2-CHO cell membranes). Set-up: host or cells: CHO cells. The settings on record: 1.5 nM [3H]PGD2, hCRTH2-CHO cell membranes, SPA. The gist of the method: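 SPA competition binding at room temperature, 90 min with agitation: 1.5 nM [3H]PGD2, 10-50 μg/ml hCRTH2-CHO membrane protein, WGA SPA beads, HEPES pH 7.4 with 10 mM MnCl2, 1% DMSO. Non-specific binding defined with 10 μM PGD2; scintillation counting.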
For orientation: Scintillation proximity formats need no separation of bound from free tracer.

Regarding `C[C@@H]1C[C@H]2[C@@H]3CCC4=CC(=O)C=C[C@]4(C)[C@@]3(F)[C@@H](O)C[C@]2(C)[C@@]1(O)C(=O)CO` [Dexamethasone], in data set [1], the “% inhibition eosinophils (mean ± s.e.m.)” value was determined as 90 ± 10% and the “% inhibition total cells (mean ± s.e.m.)” value stood at 88 ± 11%.
In general, melting point refers to the temperature, or range, at which the solid turns liquid. In general, IC50 refers to the point on the concentration scale where inhibition reaches its midpoint. The low end stands for greater potency, the high end for weaker potency. Turning to `CCS(=O)(=O)c1ccc(F)c(C#Cc2cc(Cl)ccc2OCC(=O)O)c1` [Example 104, (4-chloro-2-{[5-(ethylsulfonyl)-2-fluorophenyl]ethynyl}phenoxy)acetic acid], the melting point is 165 to 169 °C. In data set [2], the IC50 was determined as 3 nM.
In turn, `CC(C)CS(=O)(=O)c1ccc(F)c(C#Cc2cc(Cl)ccc2OCC(=O)O)c1` [Example 105, (4-chloro-2-{[2-fluoro-5-(isobutylsulfonyl)phenyl]ethynyl}phenoxy)acetic acid] gave a melting point of 141 to 143 °C. This compound also registered an IC50 in data set [2] of 2 nM.
In turn, `COCCS(=O)(=O)c1ccc(F)c(C#Cc2cc(Cl)ccc2OCC(=O)O)c1` [Example 106, [4-chloro-2-({2-fluoro-5-[(2-methoxyethyl)sulfonyl]phenyl}ethynyl)phenoxy]acetic acid] had a melting point of 125 to 128 °C. In data set [2], the half-inhibitory concentration (IC50) turned out to be 2 nM.
Taken in the same sequence, the figures for `COC1(C)c2ccc(C#Cc3cc(Cl)ccc3OCC(=O)O)cc2S(=O)(=O)C1(C)C` (stereo not shown) [Example 162, {4-chloro-2-[(3-methoxy-2,2,3-trimethyl-1,1-dioxido-2,3-dihydro-1-benzothien-6-yl)ethynyl]phenoxy}acetic acid] were 80 to 95 °C and 29 nM.
